US8088763B2 (priority 2004, dated 2012)

Assays:
[1] = target: NA-uptake (Rattus norvegicus, UniProt Q63380); assay: biochemical; settings: read-out: NA-uptake [10 μM], % inhibition
[2] = target: T1, 5HT-uptake (Rattus norvegicus, UniProt P31652); assay: biochemical; settings: read-out: 5HT-uptake [10 μM], % inhibition
T1 construct: synaptosomes were freshly isolated from areas of rats' brains
T1 sequence (P31652 whole entry): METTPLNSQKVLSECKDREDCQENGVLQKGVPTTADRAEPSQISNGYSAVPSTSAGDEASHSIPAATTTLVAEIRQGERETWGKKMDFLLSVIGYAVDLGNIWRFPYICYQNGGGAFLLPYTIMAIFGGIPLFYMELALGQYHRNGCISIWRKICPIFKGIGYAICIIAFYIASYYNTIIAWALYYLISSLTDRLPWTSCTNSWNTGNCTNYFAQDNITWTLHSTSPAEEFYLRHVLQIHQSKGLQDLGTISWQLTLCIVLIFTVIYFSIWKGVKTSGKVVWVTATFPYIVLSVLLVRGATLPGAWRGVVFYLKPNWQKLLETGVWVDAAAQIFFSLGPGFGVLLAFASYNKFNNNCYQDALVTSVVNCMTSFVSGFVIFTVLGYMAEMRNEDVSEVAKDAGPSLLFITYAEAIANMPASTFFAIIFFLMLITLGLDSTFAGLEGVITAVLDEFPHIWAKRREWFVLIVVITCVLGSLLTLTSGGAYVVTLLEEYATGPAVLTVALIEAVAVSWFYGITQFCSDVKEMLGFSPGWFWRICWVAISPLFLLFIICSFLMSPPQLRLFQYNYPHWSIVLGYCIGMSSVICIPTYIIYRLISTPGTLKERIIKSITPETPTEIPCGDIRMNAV

NA-uptake, sequence (Q63380 1-617): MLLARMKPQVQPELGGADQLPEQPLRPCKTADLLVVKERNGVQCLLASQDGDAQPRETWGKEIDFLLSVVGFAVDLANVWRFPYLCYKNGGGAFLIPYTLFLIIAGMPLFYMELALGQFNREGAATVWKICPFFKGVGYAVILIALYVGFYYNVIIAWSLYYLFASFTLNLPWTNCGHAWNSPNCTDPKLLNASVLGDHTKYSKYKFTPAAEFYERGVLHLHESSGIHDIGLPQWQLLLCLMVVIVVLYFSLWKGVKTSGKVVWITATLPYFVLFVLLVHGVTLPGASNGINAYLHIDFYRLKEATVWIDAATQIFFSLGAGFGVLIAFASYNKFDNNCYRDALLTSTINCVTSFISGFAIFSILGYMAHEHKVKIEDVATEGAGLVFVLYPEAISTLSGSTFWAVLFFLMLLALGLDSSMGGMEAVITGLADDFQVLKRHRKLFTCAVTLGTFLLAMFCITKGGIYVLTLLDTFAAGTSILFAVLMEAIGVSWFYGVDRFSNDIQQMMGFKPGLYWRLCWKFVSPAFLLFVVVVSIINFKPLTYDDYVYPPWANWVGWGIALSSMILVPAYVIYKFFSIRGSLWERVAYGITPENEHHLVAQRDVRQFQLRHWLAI

Row | Compound | inhibition at 10 µM [1] [%] | inhibition at 10 µM [2] [%]
1 | Cc1ccc(CC2(N(C)C)CCC(NC(=O)CCC(=O)NC3CCN(Cc4c(Cl)cccc4Cl)C3)CC2)cc1 (centres unmarked) [Example 1, N-[1-(2,6-dichloro-benzyl)-pyrrolidin-3-yl]-N′-[4-dimethylamino-4-(4-methyl-benzyl)-cyclohexyl]-succinamide] | 71 | 93
2 | COc1ccc2[nH]cc(CCNC(=O)CCC(=O)NC3CCC(Cc4cccc(C)c4)(N(C)C)CC3)c2c1 (centres unmarked) [Example 139, N-[4-dimethylamino-4-(3-methyl-benzyl)-cyclohexyl]-N′-(2-(5-methoxy-1H-indol-3-yl)-ethyl]-succinamide] | 95 | 93
3 | Cc1ccccc1CNC(=O)CCC(=O)NC1CCC(Cc2ccc(Cl)cc2)(N(C)C)CC1 (centres unmarked) [Example 50, N-[4-(4-chloro-benzyl)-4-dimethylamino-cyclohexyl]-N′-(2-methyl-benzyl)-succinamide] | 89 | 92
4 | CN(C)C1(Cc2ccccc2)CCC(NC(=O)CCCC(=O)N2CCN(C3CCCCCC3)CC2)CC1 (centres unmarked) [Example 62, 5-(4-cycloheptyl-piperazin-1-yl)-5-oxo-valeric acid (4-benzyl-4-dimethylamino-cyclohexyl)-amide] | 86 | 100
5 | CC1CCN(C(=O)CCC(=O)NC2CCC(Cc3cccc(Cl)c3)(N(C)C)CC2)CC1 (centres unmarked) [Example 92, N-[4-(3-chloro-benzyl)-4-dimethylamino-cyclohexyl]-4-(4-methyl-piperidin-1-yl)-4-oxo-butyramide] | 89 | 92
6 | Cc1cnc(C(=O)N2CCN(C(=O)CCCC(=O)NC3CCC(Cc4ccccc4)(N(C)C)CC3)CC2)cn1 (centres unmarked) [Example 41, 5-[4-(5-methyl-pyrazin-2-carbonyl)-piperazin-1-yl]-5-oxo-valeric acid (4-benzyl-4-dimethylamino-cyclohexyl)-amide] | 90 | 92
7 | Cc1ccc(CC2(N(C)C)CCC(NC(=O)CCC(=O)N3CC=CCC3)CC2)cc1 (centres unmarked) [Example 19, 4-(3,6-dihydro-2H-pyridin-1-yl)-N-[4-dimethylamino-4-(4-methyl-benzyl)-cyclohexyl]-4-oxo-butyramide] | 74 | 93
8 | CN(C)C1(Cc2ccc(Cl)cc2)CCC(NC(=O)CCC(=O)NCc2cc(F)cc(F)c2)CC1 (centres unmarked) [Example 49, N-[4-(4-chloro-benzyl)-4-dimethylamino-cyclohexyl]-N′-(3,5-difluoro-benzyl)-succinamide] | 98 | 92
9 | CN(C)C1(Cc2ccc(Cl)cc2)CCC(NC(=O)CCC(=O)NCCc2cccc(F)c2)CC1 (centres unmarked) [Example 88, N-[4-(4-chloro-benzyl)-4-dimethylamino-cyclohexyl]-N′-[2-(3-fluoro-phenyl)-ethyl]-succinamide] | 102 | 97
10 | Cc1ccc(CC2(N(C)C)CCC(NC(=O)CCC(=O)N(C)CCc3c[nH]c4ccccc34)CC2)cc1 (centres unmarked) [Example 36, N-[4-dimethylamino-4-(4-methyl-benzyl)-cyclohexyl]-N′-[2-(1H-indol-3-yl)-ethyl]-N′-methyl-succinamide] | 93 | 96
